Data published in PMC4088097 (Scientific Reports, 2014).

Biological target: T1, ribose binding protein RbsB (Escherichia coli, UniProt P02925)
T1 sequence (P02925 26-296): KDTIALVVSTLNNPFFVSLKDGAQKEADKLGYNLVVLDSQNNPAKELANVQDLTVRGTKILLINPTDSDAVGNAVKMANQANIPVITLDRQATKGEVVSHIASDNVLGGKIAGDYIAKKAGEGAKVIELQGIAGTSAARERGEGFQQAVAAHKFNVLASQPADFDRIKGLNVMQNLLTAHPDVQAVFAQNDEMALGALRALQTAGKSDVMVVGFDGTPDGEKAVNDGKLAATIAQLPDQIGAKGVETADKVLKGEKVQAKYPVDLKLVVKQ
Experiment: ITC with purified protein, […]°C, one-site fit

Kd: 125 nM
Structure (SMILES): O=C[C@H](O)[C@H](O)[C@H](O)CO [ribose]
